Assay results taken from PubChem BioAssay (NCI).
Several values for one entry are separate records, joined by “and”; a condition that tells them apart may be missing. Equal entries are not always repeated.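 Test compounds were applied to cells in 96-well plates for 48 hours at 5 doses. The concentration for 50% growth inhibition is given as GI50. TGI: total growth inhibition.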

Legend:
Test in all cases: DTP human tumour cell line panel, 48 h
[1] = system: IGROV1 ovarian
[2] = system: HOP-62 NSCLC
[3] = system: PC-3 prostate
[4] = system: ACHN renal
[5] = system: RXF 393 renal
[6] = system: HOP-92 NSCLC
[7] = system: UACC-62 melanoma
[8] = system: SF-268 CNS
[9] = system: NCI-H522 lung
[10] = system: NCI/ADR-RES ovarian

Row | SMILES | GI50 [1] | TGI [1] [µM] | TGI [2] [µM] | GI50 [3] | TGI [3] [µM] | GI50 [4] [µM] | TGI [4] | TGI [5] | GI50 [6] [µM] | TGI [6] [µM] | GI50 [7] [µM] | TGI [7] | GI50 [8] [µM] | TGI [8] | GI50 [9] [µM] | TGI [9] | TGI [10] [µM] | GI50 [2] [µM] | GI50 [10] [µM] | GI50 [5] [µM]
1 | CCc1c2c(nc3cc4c(cc13)OCO4)-c1cc3c(c(=O)n1C2)COC(=O)[C@]3(O)CC | 0.33 µM and 0.39 µM | > 100 | > 100 | 0.277 µM and 0.122 µM | > 100 | < 0.001 | 0.146 µM and 0.0376 µM | 0.117 µM and 0.478 µM | 0.019 | > 100 | < 0.001 | 0.195 µM and 0.409 µM | 0.00907 | 0.622 µM | – | – | – | – | – | –
2 | O=c1cc(-c2cccc(F)c2)[nH]c2cc3c(cc12)OCO3 | – | > 57 | 21.3 | – | > 89.5 | 0.432 | 75 µM and > 59.5 µM | 4.84 µM | – | 5.23 | – | > 64.9 µM | 0.658 | 75 µM and > 58.1 µM | 0.172 | 0.406 µM and 0.112 µM | 0.0497 | – | – | –
3 | O=c1[nH]c2ccccc2cc1C(Cl)=C(Cl)Cl | – | > 100 | > 100 | – | – | – | > 100 µM | > 100 µM | – | > 100 | – | > 100 µM | – | > 100 µM | – | > 100 µM | – | – | – | –
4 | C=CC(=O)N[C@H]1C=C(C)c2c(-c3cnc4ccccc4c3)c3c(N)ncnc3n2C1 | 0.568 µM | 12.2 | 66.7 | 22.7 µM | > 100 | 0.249 | 16.8 µM | 11.7 µM | 2.46 | 15.7 | 8.05 | 24.8 µM | 5.81 | 72.9 µM | 0.699 | 20.4 µM | > 87.9 | 20.9 | 21.3 | 2.68
5 | CCCCCCCCCCCCCC(=S)NCCCC[C@H](NC(=O)OCc1ccccc1)C(=O)Nc1ccccc1 | 5.87 µM | > 100 | > 100 | 2.58 µM | > 100 | 3.15 | 19.7 µM | > 100 µM | 2.3 | 8.25 | 3.51 | > 100 µM | 5.84 | > 100 µM | 2.84 | 31.2 µM | > 100 | 16 | 5.11 | 5.91
6 | O=C(NNc1nc2c(F)cccc2n2cccc12)c1cnccn1 | 0.328 µM | 29.1 | 20 | 0.393 µM | 39.5 | 0.25 | 36 µM | 7.29 µM | 0.556 | 45.1 | 0.477 | 6.28 µM | 0.484 | > 67.7 µM | 0.817 | 16.8 µM | 23.3 | 0.365 | 0.327 | 0.986
7 | Cc1nn(-c2ccc(S(=O)(=O)[O-])cc2)c([O-])c1N=[N+](C)c1ccc(-c2ccc(N=Nc3ccc4c(S(=O)(=O)[O-])cc(S(=O)(=O)[O-])c(N)c4c3[O-])c([O-])c2)cc1[O-].[Cu+2].[Cu+2].[Na+] | > 100 µM | > 100 | > 100 | > 100 µM | > 100 | > 100 | > 100 µM | > 100 µM | > 100 | > 100 | > 100 | > 100 µM | > 100 | > 100 µM | > 100 | > 100 µM | > 100 | > 100 | > 100 | > 100
8 | CCOC(=O)CC1=Nc2ccccc2SC1 | – | > 100 | > 100 | – | – | – | > 100 µM | > 100 µM | – | > 100 | – | > 100 µM | – | 1.56 µM | – | > 100 µM | – | – | – | –
9 | COc1cc2c(c3c1C=CCO3)C(=O)c1ccccc1C2=O | – | 78.5 | > 100 | – | – | – | > 100 µM | > 100 µM | – | > 100 | – | > 100 µM | – | > 100 µM | – | > 100 µM | – | – | – | –
10 | COc1ccc(-c2nn(-c3cccc(Cl)c3)cc2C2CC(c3ccccc3)=NN2C(C)=O)cc1 (stereo unspecified) | 13.7 µM | > 100 | 6.4 | 6.8 µM | > 100 | 3.48 | 20 µM | 30.8 µM | – | – | 15.3 | > 100 µM | 3.13 | 14.2 µM | 32.6 | > 100 µM | > 100 | 2.62 | 6.96 | 6.49
11 | CSc1nc(SC)c2c(CN=[N+]=[N-])c(Br)n(Cc3ccccc3)c2n1 | – | > 100 | > 100 | – | > 100 | – | > 100 µM | – | – | 83.8 | – | > 100 µM | – | > 100 µM | – | > 100 µM | > 100 | – | – | –
12 | C=CCSC[C@H](NC(=O)COc1ccccc1)C(=O)NC(C(=O)OCc1ccc([N+](=O)[O-])cc1)=C(C)C | – | > 100 | > 100 | – | – | – | > 100 µM | > 100 µM | – | – | – | > 100 µM | – | > 100 µM | – | > 100 µM | – | – | – | –
13 | C=CC1=CSNN1 | – | > 100 | > 100 | – | – | – | > 100 µM | > 100 µM | – | > 100 | – | > 100 µM | – | > 100 µM | – | > 100 µM | – | – | – | –
14 | Cn1cc(NC(=O)c2cc(NC(=O)CCCCCCCCCCC(=O)Nc3cc(C(=O)Nc4cc(C(=O)NCCC(=N)N)n(C)c4)n(C)c3)cn2C)cc1C(=O)NCCC(=N)N | – | > 100 | 81.3 | – | – | – | > 100 µM | 77.5 µM | – | – | – | > 100 µM | – | > 100 µM | – | > 100 µM | – | – | – | –
15 | CSC1=NC=CCN1C | – | > 100 | > 100 | – | – | – | > 100 µM | – | – | – | – | > 100 µM | – | > 100 µM | – | > 100 µM | – | – | – | –
16 | CC(=O)c1ccc(Nc2cc(-c3ccccc3)nc3c(O)cccc23)cc1 | 2.57 µM | 13.4 | 36 | 8.62 µM | > 100 | 20.5 | 74.1 µM | 60.3 µM | 13.7 | 50.5 | 12.7 | 29.6 µM | – | – | 2.98 | 9.64 µM | 34.9 | 10.6 | 5.53 | 17.4
17 | CCCCCCCCCCCCCCCC(=O)NCC(COP(=O)([O-])OCC[N+](C)(C)C)OCC (stereo unspecified) | – | 16 | 20.1 | – | – | – | 29.1 µM | 5.3 µM | – | 15.6 | – | 22.3 µM | – | 27 µM | – | – | – | – | – | –
